Test results published in US10045962B2 (priority 2014, dated 2018).
“And” between values parts separate entries of the source, which are not always exact repeats. Equal entries are not always repeated. Structures can show the parent of a compound that is named as a salt. Where two headings read alike, the source gives them in different places.

How the values were obtained:
Lung cancer = conditions: summary over cell lines, 10 μM, 72 hours
Description: (§1) These cells were seeded at an amount of 2×10^6 cells, and then added with the culture medium for cultivating the cells to a volume of 10 mL, followed by cultivation for 2 to 3 days. After counting the cell number, these cells were respectively plated in a 96-well plate, in which each well has a fixed cell number of 3000 and a volume of 100 μL.
(§2) After removing the culture medium in the 96-well plate, each well was added with 100 μL of 10 μM commercial drug and then placed for 72 hours. Thereafter, each well was further added with 100 μL of a diluted WST-1 solution (the dilution ratio for the culture medium: WST-1 stock solution (wt/wt) is 9:1).

Cervical cancer = conditions: summary over cell lines, 10 μM, 72 hours
Description: as §1, §2

NIH-OVCAR-3 = conditions: 10 μM, 72 hours
Description: as §1, §2

[1] = test system: TSGH (urinary bladder carcinoma); conditions: 10 μM, 72 hours
Description: as §1, §2

Prostate cancer = conditions: summary over cell lines, 10 μM, 72 hours
Description: as §1, §2

[2] = test system: MDA-MB-231 (mammary gland, adenocarcinoma); conditions: 10 μM, 72 hours
Description: as §1, §2
Each cancer cell inhibitory experiment was repeated for 4 times, followed by calculation of the mean values thereof, which were shown in the following tables.

[3] = test system: liver cancer cells (HepG2); conditions: for Increased tumor volume, Mean / Volume, Mean / Increased tumor volume / L (longest diameter of the tumor) / Volume / W (shortest diameter of the tumor) / Weight: intraperitoneal daily; for Increased tumor volume, Mean / Volume, Mean: mean of 3 mice; for Increased tumor volume / L (longest diameter of the tumor) / Volume / W (shortest diameter of the tumor) / Weight: mice A, B, C
Description: This experiment was performed with female BALB/cAnN.Cg-Foxn1nu/CrlNarl mice with a weight of around 21±1 gas samples. After subcutaneous injection of liver cancer cells (HepG2), the mice were randomly divided into three groups based on the test drug, i.e., normal control group, low dosage group (100 mg/kg/day) and high dosage group (200 mg/kg/day). After the tumor was grown to be over 100 mm^3, the mice were treated with the drug via intraperitoneal injection daily. The tumor size was measured two times per week. The formula for determining the tumor size was as follows: (L×W^2)/2, in which L represents the longest diameter of the tumor and W represents the shortest diameter of the tumor.

[4] = test system: BEAS-2B (lung epithelial); conditions: 10 μM, 72 hours
Description: as §1, §2
(§3) Each cell inhibitory experiment was repeated for 4 times, followed by calculation of the mean values thereof, which were shown in the following tables.

Skin cancer = conditions: summary over cell lines, 10 μM, 72 hours
Description: as §1, §2

various cancer cells = conditions: Table 18, FIG. 1
Description: as §1, §2

[5] = test system: BCC (basal cell carcinoma); conditions: 10 μM, 72 hours
Description: as §1, §2

[6] = test system: MCF-7 (mammary gland, adenocarcinoma); conditions: 10 μM, 72 hours
Description: as §1, §2

[7] = High dosage (200 mg/kg/day), Fifth measurement
[8] = High dosage (200 mg/kg/day), First measurement
[9] = High dosage (200 mg/kg/day), First measurement, hydrochloride
[10] = High dosage (200 mg/kg/day), Fourth measurement
[11] = High dosage (200 mg/kg/day), Second measurement
[12] = High dosage (200 mg/kg/day), Second measurement, hydrochloride
[13] = High dosage (200 mg/kg/day), Third measurement
[14] = Low dosage (100 mg/kg/day), Fifth measurement
[15] = Low dosage (100 mg/kg/day), Fifth measurement, hydrochloride
[16] = Low dosage (100 mg/kg/day), First measurement
[17] = Low dosage (100 mg/kg/day), First measurement, hydrochloride
[18] = Low dosage (100 mg/kg/day), Fourth measurement
[19] = Low dosage (100 mg/kg/day), Fourth measurement, hydrochloride
[20] = Low dosage (100 mg/kg/day), Second measurement
[21] = Low dosage (100 mg/kg/day), Second measurement, hydrochloride
[22] = Low dosage (100 mg/kg/day), Third measurement
[23] = Low dosage (100 mg/kg/day), Third measurement, hydrochloride
[24] = BEAS-2B normal lung epithelial cells, single experiment

Description for normal cells: as §1, §2, §3

## CNCC[C@H](Oc1cccc2ccccc12)c1cccs1 [duloxetine HCl, Duloxetine hydrochloride]
Lung cancer
  Survival rate (%): 36.87%
Cervical cancer
  Survival rate (%): 36.76%
NIH-OVCAR-3; mean of 4 experiments
  Mean survival rate (%): 68.2%
NIH-OVCAR-3; single experiment
  survival rate 7-3-30 min: 64.8%
  survival rate 7-4-30 min: 74.6%
  survival rate 7-7-30 min: 78.5%
  survival rate -4-30 min: 55.0%
[1]; mean of 4 experiments
  Mean survival rate (%): 49.2%
[1]; single experiment
  survival rate 0510-10 min: 36.1%
  survival rate 0512-10 min: 59.0%
  survival rate 0515-10 min: 61.2%
  survival rate 0517-10 min: 40.5%
Prostate cancer
  Survival rate (%): 59.23%
Normal cells; normal cells
  cytotoxicity to the normal cells: little or no cytotoxicity
Normal cells; normal cells versus tumor cells
  selective effect between normal cells and tumor cells: selective effect
[2]; mean of 3 printed experiments
  Mean (survival rate): 65.9%
[2]; single experiment
  survival rate 0612-10 min: 53.4%
  survival rate 0614-10 min: 70.2%
  survival rate 0616-10 min: 74.3%
[3]; [7]
  Increased tumor volume, Mean: 0 mm^3
  Volume, Mean: 0 mm^3
  Increased tumor volume: 0 mm^3
  L (longest diameter of the tumor): 0 mm
  Volume: 0 mm^3
  W (shortest diameter of the tumor): 0 mm
  Weight: 20 g
[3]; High dosage (200 mg/kg/day), Fifth measurement, hydrochloride
  Weight: 21 g
[3]; [8]
  Increased tumor volume, Mean: 78.5 mm^3
  Volume, Mean: 78.5 mm^3
  Weight: 20 g
[3]; [9]
  L (longest diameter of the tumor): 6 mm and 8 mm and 7 mm
  W (shortest diameter of the tumor): 4 mm and 5 mm
  Weight: 19 g and 18.5 g
[3]; [10]
  Increased tumor volume, Mean: −13.3333 mm^3
  Volume, Mean: 0 mm^3
  L (longest diameter of the tumor): 0 mm
  Volume: 0 mm^3
  W (shortest diameter of the tumor): 0 mm
  Weight: 20 g
[3]; High dosage (200 mg/kg/day), Fourth measurement, hydrochloride
  Weight: 21 g
[3]; [11]
  Increased tumor volume, Mean: −25.8333 mm^3
  Volume, Mean: 52.67 mm^3
  Weight: 20 g
[3]; [12]
  L (longest diameter of the tumor): 6 mm and 5 mm and 7 mm
  W (shortest diameter of the tumor): 4 mm and 3 mm and 5 mm
  Weight: 23 g
[3]; [13]
  Increased tumor volume, Mean: −39.3333 mm^3
  Volume, Mean: 13.33 mm^3
[3]; High dosage (200 mg/kg/day), Third measurement, hydrochloride
  Weight: 19 g and 18.5 g
[3]; [14]
  Increased tumor volume, Mean: −8.333 mm^3
  Volume, Mean: 63.33 mm^3
  Weight: 20 g
[3]; [15]
  L (longest diameter of the tumor): 6 mm and 4 mm
  W (shortest diameter of the tumor): 6 mm and 5 mm and 4 mm
  Weight: 22 g
[3]; [16]
  Increased tumor volume, Mean: 113.1667 mm^3
  Volume, Mean: 113.1667 mm^3
[3]; [17]
  Increased tumor volume: 87.5 mm^3 and 144 mm^3 and 108 mm^3
  L (longest diameter of the tumor): 7 mm and 8 mm and 6 mm
  Volume: 87.5 mm^3 and 144 mm^3 and 108 mm^3
  W (shortest diameter of the tumor): 5 mm and 6 mm
  Weight: 19 g and 18 g
[3]; [18]
  Increased tumor volume, Mean: −18.1667 mm^3
  Volume, Mean: 71.67 mm^3
  Weight: 20 g
[3]; [19]
  L (longest diameter of the tumor): 6 mm and 4 mm
  W (shortest diameter of the tumor): 6 mm and 4 mm and 5 mm
  Weight: 22 g
[3]; [20]
  Increased tumor volume, Mean: −4.167 mm^3
  Volume, Mean: 109 mm^3
  Weight: 20 g
[3]; [21]
  L (longest diameter of the tumor): 6 mm and 7 mm
  Volume: 75 mm^3 and 126 mm^3
  W (shortest diameter of the tumor): 5 mm and 6 mm
  Weight: 19 g and 21 g
[3]; [22]
  Increased tumor volume, Mean: −19.1667 mm^3
  Volume, Mean: 89.83 mm^3
  L (longest diameter of the tumor): 7 mm
[3]; [23]
  W (shortest diameter of the tumor): 6 mm and 4 mm and 5 mm
  Weight: 20.5 g and 23.5 g and 19 g
[3]; both low dosage and high dosage, FIG. 2
  inhibitory effect against the tumors: great inhibitory effect
[3]; each group of mice, high or low dosage
  weight loss during the experiments: no obvious weight loss
[3]; either high or low dosage
  health condition / death during the treatment: not die during the treatment
[3]; high dosage, FIG. 3
  effect on tumor volume, high versus low dosage: better effect
[3]; low dosage and high dosage, FIG. 3
  increase of tumor volume: effectively inhibit the increase of tumor volume
[4]; BEAS-2B normal lung epithelial cells, mean of 4 experiments
  Mean survival rate (%): 72.5%
[4]; [24]
  survival rate 0510-10 min: 59.5%
  survival rate 0512-10 min: 76.3%
  survival rate 0515-10 min: 74.7%
  survival rate 0517-10 min: 79.6%
[4]; Lung epithelial cells (BEAS-2B normal cells), summary table
  Survival rate (%): 72.50%
Skin cancer
  Survival rate (%): 39.79%
Various cancer cells
  inhibitory effect against various cancers: significant inhibitory effect
[5]; mean of 3 experiments
  Mean (survival rate): 48.1%
[5]; single experiment
  survival rate 0602-30 min: 43.9%
  survival rate 0605-10 min: 31.3%
  survival rate 0607-10 min: 69.0%
[6]; mean of 4 experiments
  Mean survival rate (%): 31.2%
[6]; single experiment
  survival rate 0612-10 min: 29.0%
  survival rate 0614-10 min: 37.3%
  survival rate 0616-10 min: 30.0%
  survival rate 0619-10 min: 28.5%
